In the NIST ThermoML archive (doi:10.1021/je5010214):

Conditions: Liquid, Vibrating tube method

CCCCO [butan-1-ol]
Conditions | mass density [kg/m3]
283.15 K, 267.6 kPa | 817.937
283.15 K, 550.8 kPa | 818.14
283.15 K, 878.6 kPa | 818.388
283.15 K, 991.3 kPa | 818.415
283.15 K, 2020.2 kPa | 819.134
283.15 K, 2914.8 kPa | 819.722
283.15 K, 4946.5 kPa | 821.145
283.15 K, 7034.8 kPa | 822.538
283.15 K, 9021.6 kPa | 823.807
283.15 K, 9991.9 kPa | 824.485
283.15 K, 11959 kPa | 825.705
283.15 K, 15011 kPa | 827.609
283.15 K, 18047 kPa | 829.455
283.15 K, 20045 kPa | 830.642
283.15 K, 22057 kPa | 831.928
283.15 K, 25044 kPa | 833.615
283.15 K, 28046 kPa | 835.368
283.15 K, 30052 kPa | 836.501
283.15 K, 32970 kPa | 838.092
283.15 K, 32971 kPa | 838.117
283.15 K, 34017 kPa | 838.557
283.15 K, 34960 kPa | 839.141
283.15 K, 37943 kPa | 840.737
283.15 K, 40004 kPa | 841.811
283.15 K, 42058 kPa | 842.896
283.15 K, 44940 kPa | 844.325
283.15 K, 48022 kPa | 845.954
283.15 K, 49996 kPa | 846.902
283.15 K, 51982 kPa | 847.942
283.15 K, 54965 kPa | 849.358
283.15 K, 57949 kPa | 850.826
283.15 K, 59996 kPa | 851.847
283.15 K, 62025 kPa | 852.74
283.15 K, 64998 kPa | 854.215
283.16 K, 101.2 kPa | 817.825
283.16 K, 65971 kPa | 854.69
288.15 K, 78.5 kPa | 813.612
288.15 K, 391.3 kPa | 813.84
288.15 K, 554.4 kPa | 813.953
288.15 K, 882.7 kPa | 814.204
288.15 K, 989.1 kPa | 814.282
288.15 K, 2057.5 kPa | 815.033
288.15 K, 2917.8 kPa | 815.651
288.15 K, 5041.4 kPa | 817.16
288.15 K, 7088.8 kPa | 818.541
288.15 K, 9018.6 kPa | 819.847
288.15 K, 10040 kPa | 820.583
288.15 K, 12072 kPa | 821.91
288.15 K, 15001 kPa | 823.877
288.15 K, 17968 kPa | 825.72
288.15 K, 20068 kPa | 826.976
288.15 K, 20693 kPa | 827.38
288.15 K, 22020 kPa | 828.211
288.15 K, 25002 kPa | 829.984
288.15 K, 28026 kPa | 831.832
288.15 K, 30035 kPa | 832.896
288.15 K, 32084 kPa | 834.074
288.15 K, 33050 kPa | 834.714
288.15 K, 34036 kPa | 835.152
288.15 K, 35077 kPa | 835.674
288.15 K, 37993 kPa | 837.311
288.15 K, 40041 kPa | 838.449
288.15 K, 42023 kPa | 839.459
288.15 K, 44979 kPa | 841.064
288.15 K, 48045 kPa | 842.655
288.15 K, 50068 kPa | 843.734
288.15 K, 52032 kPa | 844.696
288.15 K, 55077 kPa | 846.251
288.15 K, 58004 kPa | 847.666
288.15 K, 59988 kPa | 848.618
288.15 K, 61974 kPa | 849.542
288.15 K, 64942 kPa | 850.93
288.15 K, 66025 kPa | 851.488
293.15 K, 91.1 kPa | 810.528
293.15 K, 825.1 kPa | 811.053
293.15 K, 1971.7 kPa | 811.916
293.15 K, 3060.6 kPa | 812.72
293.15 K, 5011 kPa | 814.074
